Common to all, as to format: cell-based, human
The test system of one experiment is NHDF cells. The experiment is described as follows: Collagen production by NHDF cells (Sircol collagen assay). The note with it: three days. From the text: For the anti-wrinkle action of glucosyladenosines, the effect of glucosyladenosines on the collagen production in the dermis was examined as follows using a normal human fetal fibroblast (NHDF) commonly used for evaluating agents for enhancing collagen production in the skin. […] Thereafter, the culture supernatant in each well was removed by aspiration, and the resulting cells were washed with phosphate buffered saline (PBS), and admixed with pepsin, commercialized by Sigma-Aldrich Co. LLC., Missouri, USA, which had been diluted with 1 M acetic acid to give a concentration of 1 mg/ml, in a volume of 250 μl/well. The resulting plates were shaken at ambient temperature for four hours, and the cells adhered to the wells were detached therefrom with a cell scraper and subjected to pipetting, followed by collecting the resulting cell suspension after the pepsin digestion into “EPPENDORF TUBE”, a product name of a 1.5 ml microtube, commercialized by Eppendorf AG, Hamburg, Germany. “Sicrol Collagen Assay Kit”, a product name of a developing color reagent for quantifying collagen, commercialized by Biocolor, CA, USA, was added to the tubes in a volume of 500 μl/tube, mixed with a vortex mixer, kneaded by allowing the tubes upside-down at an ambient temperature for exact 30 min using “RT-50”, a product name of a rotator commercialized by TAITEC Corporation, Saitama, Japan, and centrifuged (1,500 rpm) at 4° C. for 10 min to remove supernatants. The resulting sediments were admixed with 1 N NaOH in a volume of 100 μl/tube and dissolved by pipetting. The resulting solutions were all transferred to “FALCON MICROTEST™96”, a product name of a 96-well microplate commercialized by Becton, Dickinson and Company, NJ, USA, and measured for absorbance (A560-A650) on “Vmax Microplate Reader”, a product name of an absorption spectrometer commercialized by Molecular Devices Corporation, CA, USA. The collagen level in each well was determined based on a standard curve prepared by using type I collagen commercialized by KOKEN Co., Ltd., Tokyo, Japan, and the data are shown in Table 6 in parallel.

The subject of a further experiment is profilaggrin (PFG). The experiment is described as follows: Real-time PCR gene expression in NHEK cells: profilaggrin. As to conditions: 1 μM, seven days, relative to control = 1.00. As to the method: (§1) Since glucosyladenosines were confirmed in Experiment 5 to have an action of enhancing the differentiation of keratinocytes effective for skin improvement, a test for examining the change of the expression level of a molecular marker gene of keratinocytes, as an index, was performed as follows using a real-time PCR analysis method to examine the above action in more detail. The expression level of a ceramide-synthesis-related gene was also studied to examine the influence of glucosyladenosines on ceramide synthesis that had been known to have an important role in moisturizing the skin and barrier function of the skin and deemed to be effective for skin improvement. As genes for analysis, profilaggrin (PFG: a later differentiation marker) and involucrin (INV: an early differentiation marker) as differentiation markers of keratinocytes and β-glucocerebrosidase (GCase) and sphingomyelinase (SMase) as ceramide-synthesis-related enzymes were selected, and a gene for cyclophilin B (CypB) as an internal standard upon practicing PCR reaction was used (see FIG. 7). NHEK cells were inoculated to 6-well plate coated with collagen in an amount of 8×10^4 cells/1.5 ml/well, cultured with EpiLife medium, and cultured at 37° C. for two days under a 5 v/v % CO2 condition. Thereafter, the culture medium was removed, and the resulting cells were added with a fresh EpiLife medium containing 5′-glucosyladenosine, 3′-glucosyladenosine, or adenosine in a volume of 1.5 ml/well (giving a final concentration of 1 μM of any one of glucosyladenosines and adenosine), and cultured for seven days while replacing the medium with a fresh one containing any one of glucosyladenosines and adenosine in a volume of 1.5 ml/well every other day. After completion of the culture, each well was washed twice with PBS(K−), followed by adding 0.2 ml/well of 0.025% by mass of trypsin/EDTA solution to the resulting cells and allowing the cells to stand at an ambient temperature for five minutes to detach them from the plates. […]

Experiment [1] has as its system β-glucocerebrosidase (GCase). As to the kind of experiment: Real-time PCR gene expression in NHEK cells: β-glucocerebrosidase. The note with it: 1 μM, seven days, relative to control = 1.00. As to the method:
as §1
On the technique in general: In qPCR the cycle at which signal appears reflects the starting amount.

Marks after values point to notes of the source that are not given here.

Take `Nc1ncnc2c1ncn2[C@@H]1O[C@H](CO)[C@@H](O[C@H]2O[C@H](CO)[C@@H](O)[C@H](O)[C@H]2O)[C@H]1O` [3′-Glucosyladenosine, α-D-glucopyranosyl-(1→3′)-adenosine]: the Collagen production level in the experiment with NHDF cells (5 μM in medium) was 3.39* μg/well; in the experiment on NHDF cells (10 μM in medium), 4.37** μg/well. Besides, in the experiment with profilaggrin (PFG), the “Gene expression level PFG” value is 2.03*. Moreover, the “Gene expression level GCase” value in experiment [1] is 2.08*.

`Nc1ncnc2c1ncn2[C@@H]1O[C@H](CO[C@H]2O[C@H](CO)[C@@H](O)[C@H](O)[C@H]2O)[C@@H](O)[C@H]1O` [5′-Glucosyladenosine, α-D-glucopyranosyl-(1→5′)-adenosine]: the Collagen production level is 3.53* μg/well in the experiment on NHDF cells (5 μM in medium) and 4.54** μg/well in the experiment with NHDF cells (10 μM in medium). Further, the “Gene expression level PFG” value in the experiment on profilaggrin (PFG) was 2.54**. Further, the “Gene expression level GCase” value in experiment [1] is 2.68**.

`Nc1ncnc2c1ncn2[C@@H]1O[C@H](CO)[C@@H](O)[C@H]1O` [Adenosine, reference compound]: the Collagen production level is on record as 2.61 μg/well with NHDF cells (5 μM in medium) and 3.02* μg/well with NHDF cells (10 μM in medium). Besides, the “Gene expression level PFG” value in the experiment on profilaggrin (PFG) was 1.41. Further, the “Gene expression level GCase” value in experiment [1] worked out at 1.37.
